In brackets after ≈: the same amount, converted by molar mass.
Assays:
S. pneumoniae [1] = test: MIC, standard antibiogram based on microdilution; type: cell-based; conditions: Streptococcus pneumoniae
Method: (§1) A quantitative method may rely on dilution in a series of broths or agar solutions having progressively lower concentrations of the antibiotic in question. The lowest concentration of antibiotic in which the bacteria cannot grow provides the minimum inhibitory concentration of that antibiotic to the tested strain of bacteria. This quantitative method may be routinely employed in the hospitals, usually using commercial panels of antibiotics and semi-automated systems of incubation and software for data interpretation like the MicroScan WalkAway™ (Siemens), Phoenix (Becton Dickinson), or Vitek™ 2 (bioMérieux). With such growth-dependent automated systems, results of susceptibility or resistance to antimicrobians from a specific microorganism may be obtained in around 6-9 hours.
(§2) In an exemplification of this principal, two strains of S. pneumoniae growing in Mueller-Hinton II broth complemented with cations and 2-5% lysed horse blood, at 37° C. with 5% CO2, were assayed. […] The purpose of the assay was to distinguish rapidly the susceptible and the resistant (i.e. non-susceptible) strain to azithromycin.

H. influenzae = test: Cell enlargement by low-dose mitomycin C after azithromycin; type: cell-based, Haemophilus influenzae; conditions: azithromycin 4 μg/ml 30 min followed by mitomycin C 0.5 μg/ml 120 min; azithromycin-resistant strain
Method: In one exemplification, two strains of H. influenzae exponentially growing in Mueller-Hinton broth were incubated under four differing treatments and then assayed. One strain was susceptible and the other resistant to the macrolide azithromycin (an inhibitor of protein synthesis). For the purpose of rapidly distinguishing the susceptible and the resistant strain to azithromycin each strain was incubated under four sets of conditions.
A portion of each strain was incubated with azithromycin at 4 μg/ml for 150 minutes. The dose azithromycin corresponded to the dose indicated by the CLSI as the breakpoint of susceptibility to azithromycin in the standard antibiograms based on microdilution. Another portion of each strain was incubated with Mitomycin C at 0.5 μg/ml for 120 minutes. Still another portion was incubated with azithromycin at 4 μg/ml for 30 min followed by mitomycin C at 0.5 μg/ml for 120 min, without removing the azithromycin. A final portion of each strain was not incubated with any antibiotics.

S. pneumoniae [2] = test: Micromax assay of autolysis and DNA fragmentation induced by Triton-lysozyme-EDTA after azithromycin (Example 4); type: cell-based, Streptococcus pneumoniae; conditions: for cells lysed and with fragmented DNA: azithromycin 0.5 μg/ml 60 min followed by Triton-lysozyme-EDTA 5 min; for less fragmentation than incubation with Triton-lysozyme-EDTA alone: azithromycin 0.5 μg/ml 60 min followed by Triton-lysozyme-EDTA
Method: as §2
Each of these two strains were subjected to four treatments. A first portion of both strains was incubated with azithromycin at a concentration of 0.5 μg/ml for 60 min. The dose was that indicated by the CLSI as the breakpoint of susceptibility to azithromycin in the standard antibiogram based on microdilution. Another portion of both strains was incubated with 0.05% Triton X-100, 2 mg/ml lysozyme, 25 mM EDTA, 5 min. Still another portion of each strain was incubated with azithromycin at 0.5 μg/ml for 60 min followed by 0.05% Triton X-100, 2 mg/ml lysozyme, 25 mM EDTA, 5 min, without removing the azithromycin. A final portion of each strain remained without any antibiotics.
After incubation cells were processed using the variant of the Micromax technology to visualize the nucleoids. In the same manner indicated previously, samples from cells from the culture are immersed in an agarose microgel on a slide and incubated with a specific lysing solution to remove the cell wall in all the cells and release in the microgel the nucleoids contained inside the bacteria. […] The microgels are dried, stained with a high sensitive fluorochrome for DNA like SYBR Gold and visualized under fluorescence microscopy.

Staphylococcus aureus = test: Micromax assay of DNA fragmentation by DNase released with lysostaphin after azithromycin (Example 3); type: cell-based; conditions: for DNA fragmentation of released nucleoids: azithromycin 2 μg/ml 120 min followed by lysostaphin 10 μg/ml 1 min
Method: In an exemplification of this principal, two strains of S. aureus growing in Mueller-Hinton agar with 5% sheep blood were assayed. One strain was susceptible to the macrolide azithromycin (an inhibitor of protein synthesis) (FIGS. 13-15) and the other strain was a clinical isolate resistant to azithromycin (FIGS. 16-18). The purpose was to rapidly distinguish susceptible and non-susceptible strains to azithromycin. Cultures were processed direct from standard growing agar plates 18-24 h and it was not necessary the cells being exponentially growing previously to the assay.
Each of these strain was subjected to four treatments. One portion of both strains was incubated with azithromycin at 2 μg/ml for 120 min; 2 μg/ml being indicated by the CLSI as the breakpoint of susceptibility to azithromycin. The cells were then lysed to release nucleoids and images of FIGS. 13 and 16 were generated. Another portion of each strain was incubated with lysostaphin at 10 μg/ml for 1 min. FIGS. 14 and 17 depict the nucleoids released in each strain for this treatment. Still another portion was incubated with Azithromycin at 2 μg/ml for 120 min followed by lysostaphin at 10 μg/ml for 1 min, without removing the azithromycin. The assays for these treatments can be seen at FIGS. 15 and 18. A final portion was left without either antibiotic.
After the incubation, the cells were processed using the variant of a Micromax technology to lyse cells with affected cell walls. As indicated previously, samples from cells from the culture are immersed in an agarose microgel on a slide and incubated with a specific lysing solution to remove the cell wall in those cells affected by lysostaphin and release in the microgel the nucleoids contained inside the bacteria. These are dried, stained with a highly sensitive fluorochrome for DNA like SYBR Gold and visualized under fluorescence microscopy.

Enterococcus faecalis [3] = test: Variant Micromax assay of cell lysis by lysozyme after erythromycin (Example 6); type: cell-based; conditions: for lysed cells: erythromycin 0.5 μg/ml 75 min, lysozyme 1 mg/ml during last 10 min
Method: (§3) As an example, two strains of Enterococcus faecalis exponentially growing in Mueller-Hinton broth were incubated under four different conditions and then assayed. […] Each strain was subjected to four treatments for the purpose of rapidly distinguishing the susceptible and the resistant strain to erythromycin.
The dose was that indicated by the CLSI as the breakpoint of susceptibility to erythromycin in the standard antibiogram based on microdilution. Another portion of both strains was incubated with lysozyme 1 mg/ml, 10 min at 37° C. […]
After incubation with lysozyme, the cells were processed using a variant of the Micromax technology to visualize the nucleoids, i.e. spreading of the bacterial chromosomal DNA, in all the cells of the population. Samples from the cultures were immersed in an agarose microgel on a slide and incubated with a specific lysing solution to remove the cell wall in all the cells and release in the microgel the nucleoids contained inside the bacteria. These are dried, stained with a highly sensitive fluorochrome for DNA like SYBR Gold and visualized under fluorescence microscopy.

Enterococcus faecalis [4] = test: MIC, standard antibiogram based on microdilution; type: cell-based
Method: as §1, §3

[5] = azithromycin-susceptible strain
[6] = erythromycin-susceptible strain

SMILES | MIC (S. pneumoniae [1]; azithromycin-resistant strain) [µg/mL] | MIC (S. pneumoniae [1]; [5]) [µg/mL] | cell enlargement (H. influenzae) | cells lysed and with fragmented DNA (S. pneumoniae [2]; resistant strain) [%] | cells lysed and with fragmented DNA (S. pneumoniae [2]; susceptible strain) | less fragmentation than incubation with Triton-lysozyme-EDTA alone (S. pneumoniae [2]; resistant strain) [%] | less fragmentation than incubation with Triton-lysozyme-EDTA alone (S. pneumoniae [2]; susceptible strain) [%] | modification of the bacteria (S. pneumoniae [2]; azithromycin alone 0.5 μg/ml 60 min, both strains) | DNA fragmentation of released nucleoids (Staphylococcus aureus; azithromycin-resistant clinical isolate) | DNA fragmentation of released nucleoids (Staphylococcus aureus; [5]) | modification of the appearance of the bacteria (Staphylococcus aureus; azithromycin alone 2 μg/ml 120 min, both strains) | lysed cells (Enterococcus faecalis [3]; erythromycin-resistant strain) [%] | lysed cells (Enterococcus faecalis [3]; [6]) [%] | response pattern in further Enterococcus strains (Enterococcus faecalis [3]; four more erythromycin-susceptible and thirteen more erythromycin-resistant strains) | MIC (Enterococcus faecalis [4]; erythromycin-resistant strain) [µg/mL] | MIC (Enterococcus faecalis [4]; [6]) [µg/mL]
CC[C@H]1OC(=O)[C@H](C)[C@@H](O[C@H]2C[C@@](C)(OC)[C@@H](O)[C@H](C)O2)[C@H](C)[C@@H](O[C@@H]2O[C@H](C)C[C@H](N(C)C)[C@H]2O)[C@](C)(O)C[C@@H](C)CN(C)[C@H](C)[C@@H](O)[C@]1(C)O [azithromycin] | > 32 | 0.25 (≈ 0.334 µM) | the bacteria appeared enlarged | 86 | about 40% | 7 | 44 | did not result in modification of the bacteria | a large extend of DNA fragmentation | strongly reduced level of DNA fragmentation or even suppression of DNA fragmentation | did not result in modification of the appearance of the bacteria |  |  |  |  | 
CC[C@H]1OC(=O)[C@H](C)[C@@H](O[C@H]2C[C@@](C)(OC)[C@@H](O)[C@H](C)O2)[C@H](C)[C@@H](O[C@@H]2O[C@H](C)C[C@H](N(C)C)[C@H]2O)[C@](C)(O)C[C@@H](C)C(=O)[C@H](C)[C@@H](O)[C@]1(C)O [erythromycin] |  |  |  |  |  |  |  |  |  |  |  | 96.77 | 3.87 | a similar response pattern has been reproduced | > 128 | 0.125 (≈ 0.17 µM)
